According to patent publication US10231933B2, “Enteric coated, soluble creatine and polyethylene glycol composition for enhanced skeletal uptake of oral creatine” (CRYXA LLC, priority 2007, dated 2019):

Columns and labels:
[1] = Blood chemistries pre- and post-supplementation; assay type: in vivo, human; parameters: ALT (SGPT): unit not given here
[2] = Muscle biopsy (vastus lateralis) ATP, creatine phosphate and creatine concentrations pre- and post-supplementation; assay type: in vivo, human
Method: The participants selected had the following characteristics:
Pre and post muscle biopsies were obtained from the vastus lateralis muscle. Samples were immediately frozen in liquid nitrogen and stored at −80° C. for later analysis. The frozen samples were weighed to the nearest 0.1 mg, freeze dried for 8 hours and reweighed. The tissue samples were extracted and then analyzed for creatine, creatine phosphate, and ATP content via […].

[3] = known; cited from earlier work
[4] = Post 5 days supplementation, muscle biopsy
[5] = post-suppl., 5 days, control 20 gm/day, experimental 10 gm/day creatine equivalent
[6] = male, human, blood, oral, 20 gm/day

CN(CC(=O)O)C(=N)N.O [creatine•H2O, creatine monohydrate]
A/G Ratio (ratio) ([1]; Post): 1.88 ± 0.06 ratio | ALT (SGPT) ([1]; Post): 20.9 ± 4.1 | AST (SGOT) ([1]; Post): 23.3 ± 2.1 IU · L^−1 | Albumin, Serum ([1]; Post): 4.5 ± 0.1 g/dL | Alk. Phosphatase ([1]; Post): 85.4 ± 9.3 IU · L^−1 | BUN ([1]; Post): 17.9 ± 1.8 mg/dL | BUN/Creatinine (ratio) ([1]; Post): 16.3 ± 1.4 ratio | Bilirubin, Total ([1]; Post): 0.6 ± 0.1 mg/dL | Calcium, Serum ([1]; Post): 9.7 ± 0.1 mg/dL | Carbon Dioxide ([1]; Post): 25.8 ± 0.7 mM · L^−1 | Chloride, Serum ([1]; Post): 101.9 ± 0.7 mM · L^−1 | Creatinine, Serum ([1]; Post): 1.09 ± 0.07 mg/dL | Globulin, Serum ([1]; Post): 2.4 ± 0.1 g/dL | Glucose, Serum ([1]; Post): 82.6 ± 4.3 mg/dL | Iron, Serum ([1]; Post): 103.3 ± 14.2 µg/dL | LDH ([1]; Post): 157.9 ± 8.2 IU · L^−1 | Phosphorus, Serum ([1]; Post): 4.3 ± 0.3 mg/dL | Potassium, Serum ([1]; Post): 4.4 ± 0.1 mM · L^−1 | Protein, Serum ([1]; Post): 6.9 ± 0.1 g/dL | Sodium, Serum ([1]; Post): 138.6 ± 0.6 mM · L^−1 | Uric Acid, Serum ([1]; Post): 4.7 ± 0.2 mg/dL | A/G Ratio (ratio) ([1]; Pre): 1.77 ± 0.06 ratio | ALT (SGPT) ([1]; Pre): 24.1 ± 4.5 | AST (SGOT) ([1]; Pre): 25.3 ± 3.6 IU · L^−1 | Albumin, Serum ([1]; Pre): 4.5 ± 0.1 g/dL | Alk. Phosphatase ([1]; Pre): 78.7 ± 10.1 IU · L^−1 | BUN ([1]; Pre): 16.4 ± 1.4 mg/dL | BUN/Creatinine (ratio) ([1]; Pre): 17.8 ± 1.3 ratio | Bilirubin, Total ([1]; Pre): 0.6 ± 0.1 mg/dL | Calcium, Serum ([1]; Pre): 9.9 ± 0.1 mg/dL | Carbon Dioxide ([1]; Pre): 26.7 ± 0.4 mM · L^−1 | Chloride, Serum ([1]; Pre): 101.0 ± 0.5 mM · L^−1 | Creatinine, Serum ([1]; Pre): 0.93 ± 0.04 mg/dL | Globulin, Serum ([1]; Pre): 2.6 ± 0.1 g/dL | Glucose, Serum ([1]; Pre): 86.7 ± 2.7 mg/dL | Iron, Serum ([1]; Pre): 88.8 ± 10.5 µg/dL | LDH ([1]; Pre): 155.0 ± 6.0 IU · L^−1 | Phosphorus, Serum ([1]; Pre): 4.3 ± 0.1 mg/dL | Potassium, Serum ([1]; Pre): 4.3 ± 0.1 mM · L^−1 | Protein, Serum ([1]; Pre): 7.1 ± 0.1 g/dL | Sodium, Serum ([1]; Pre): 139.1 ± 0.5 mM · L^−1 | Uric Acid, Serum ([1]; Pre): 5.6 ± 0.3 mg/dL | skeletal muscle uptake (comparison of the two) ([2]; 50 g creatine equivalents total (creatine HCl/PEG) vs 100 g total (creatine.H2O)): similar | ATP [2, 4]: 22.7 ± 1.2 μM · gdw^−1 | Creatine [2, 4]: 39.2 ± 2.7 μM · gdw^−1 | Creatine · ATP^−1 (ratio) [2, 4]: 2.01 ± 0.33 ratio | creatine phosphate [2, 4]: 75.6 ± 4.0 μM · gdw^−1 | creatine phosphate/ATP^−1 [2, 4]: 3.34 ± 0.01 | ATP ([2]; Pre, muscle biopsy): 21.6 ± 1.4 μM · gdw^−1 | Creatine ([2]; Pre, muscle biopsy): 23.0 ± 4.2 μM · gdw^−1 | Creatine · ATP^−1 (ratio) ([2]; Pre, muscle biopsy): 1.36 ± 0.36 ratio | creatine phosphate ([2]; Pre, muscle biopsy): 71.7 ± 4.8 μM · gdw^−1 | creatine phosphate/ATP^−1 ([2]; Pre, muscle biopsy): 3.33 ± 0.01 | muscle concentrations of free creatine and total creatine by the end of the study ([2]; end of 5 days supplementation): significantly elevated | CELLULAR ATP (molar ratio) [2, 5]: 5.07 ± 0.24 molar ratio | UPTAKE EFFICACY [2, 5]: 5.85 ± 1.85 | free creatine [2, 5]: 39.2 ± 2.7 μM · gdw^−1 | CELLULAR ATP (molar ratio) ([2]; pre-suppl., muscle biopsy): 4.48 ± 0.30 molar ratio | free creatine ([2]; pre-suppl., muscle biopsy): 23.0 ± 4.2 μM · gdw^−1 | time of peak blood concentration post-ingestion (5 hour sampling, experimental peak may not have been fully achieved): two hours | Integrated area under curve (5 hr sampling period post-ingestion): 91.8 ± 5.5 mg · dL^−1 · 5 hrs^−1 | Circulating concentrations of creatine (Pre ingestion): 0.47 ± 0.35 mg/dL | concentration at 15 min [6]: 40.8 ± 11.4 µg/mL | concentration at 30 min [6]: 138 ± 18.6 µg/mL | concentration at 1 h [6]: 208 ± 18.7 µg/mL | concentration at 2 h [6]: 260 ± 29.6 µg/mL | concentration at 3 h [6]: 242 ± 12.9 µg/mL | concentration at 4 h [6]: 162 ± 11.3 µg/mL | concentration at 5 h [6]: 102 ± 8.5 µg/mL | time by which blood creatine concentrations increased significantly (post-ingestion): ≤ 15 min | peak blood concentration of creatine (within five hours post-ingestion): 25.99 ± 2.96 mg/dL | breakdown in the stomach [3]: rapidly breaks down in the stomach to form creatinine
